Laboratory results taken from ChEMBL document CHEMBL1201862, “PubChem BioAssay data set” (2004).
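The compound was tested at five concentrations on cells cultured in 96-well plates, with a 48-hour exposure period. At the GI50, growth is halved.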 Active and inactive are the calls of the source. Rule as the data show it: active = GI50 up to about 1.1 µM and inactive = higher.

Legend:
Assay in all cases: NCI-60 cell line screen, 48 h
786-0 = tested on: 786-0
A498 = tested on: A498
ACHN = tested on: ACHN
CAKI-1 = tested on: CAKI-1
DU-145 = tested on: DU-145
EKVX = tested on: EKVX
HCT-15 = tested on: HCT-15
HOP-62 = tested on: HOP-62
HOP-92 = tested on: HOP-92
IGROV-1 = tested on: IGROV-1
KM12 = tested on: KM12
NCI-H226 = tested on: NCI-H226
NCI-H23 = tested on: NCI-H23
NCI-H460 = tested on: NCI-H460
NCI-H522 = tested on: NCI-H522
SF-268 = tested on: SF-268
SF-539 = tested on: SF-539
SK-MEL-2 = tested on: SK-MEL-2
UO-31 = tested on: UO-31
BT-549 = tested on: BT-549

Compound | GI50 (786-0) | GI50 (A498) | GI50 (ACHN) | GI50 (CAKI-1) | GI50 (DU-145) | GI50 (EKVX) | GI50 (HCT-15) | GI50 (HOP-62) | GI50 (HOP-92) | GI50 (IGROV-1) | GI50 (KM12) | GI50 (NCI-H226) | GI50 (NCI-H23) | GI50 (NCI-H460) | GI50 (NCI-H522) | GI50 (SF-268) | GI50 (SF-539) | GI50 (SK-MEL-2) | GI50 (UO-31) | GI50 (BT-549)
COc1ccc(C2OC(c3ccncc3)=NN2C)cc1OC (stereo unspecified) | > 100 µM (inactive) | 33.5 µM (inactive) | > 100 µM (inactive) | 73.3 µM (inactive) | > 100 µM (inactive) | > 100 µM (inactive) | > 100 µM | 94.6 µM (inactive) | 48.9 µM (inactive) | > 100 µM (inactive) | > 100 µM (inactive) | 81.7 µM (inactive) | > 100 µM (inactive) | > 100 µM (inactive) | > 100 µM (inactive) | > 100 µM (inactive) | > 100 µM (inactive) | > 100 µM (inactive) | 60.1 µM (inactive) | 
CCOC(=O)C(=O)C(/C(=N/N(C)C)C(=O)Nc1ccc(C)cc1C)c1nc2ccccc2nc1O (stereo unspecified) | > 100 µM (inactive) | > 100 µM (inactive) | > 100 µM (inactive) | > 100 µM (inactive) |  | 49.1 µM (inactive) | > 100 µM | > 100 µM (inactive) | > 100 µM (inactive) | > 100 µM (inactive) | > 100 µM (inactive) | > 100 µM (inactive) | > 100 µM (inactive) | > 100 µM (inactive) | > 100 µM (inactive) | > 100 µM (inactive) | > 100 µM (inactive) | > 100 µM (inactive) | > 100 µM (inactive) | > 100 µM (inactive)
CCOC(=O)c1c(N)sc2c1C(C)(C(=O)OCC)CC2 (stereo unspecified) | > 100 µM (inactive) | 18.2 µM (inactive) | > 100 µM (inactive) |  |  | 38.6 µM (inactive) | > 100 µM | > 100 µM (inactive) | 58.3 µM (inactive) | > 100 µM (inactive) | > 100 µM (inactive) | > 100 µM (inactive) | > 100 µM (inactive) | 69.5 µM (inactive) |  |  |  | > 100 µM (inactive) | 63.8 µM (inactive) | > 100 µM (inactive)
CN(C)CCNc1ccc(NCC[N+](C)(C)Cc2ccc([N+](=O)[O-])cc2)c2c1C(=O)c1c(O)ccc(O)c1C2=O | 18.2 µM (inactive) | > 100 µM (inactive) |  | 12.2 µM (inactive) | 30.1 µM (inactive) | > 100 µM (inactive) | 6.82 µM | 79.3 µM (inactive) |  | 40.3 µM (inactive) | 26.1 µM (inactive) | 15.3 µM (inactive) | 54 µM (inactive) |  |  | 19.8 µM (inactive) |  | > 100 µM (inactive) |  | 18.8 µM (inactive)
CCOC(=O)C(=CNc1ccc(N(C2=NCC(C)S2)c2ccc(F)c(Cl)c2)cc1)C(=O)OCC (stereo unspecified) | 16.2 µM (inactive) | 21.9 µM (inactive) | 18.5 µM (inactive) | 39.2 µM (inactive) | 17.6 µM (inactive) | 19.5 µM (inactive) | 18.8 µM | 21.1 µM (inactive) | 18.1 µM (inactive) | 20.5 µM (inactive) | 18.7 µM (inactive) | 18.1 µM (inactive) | 17.5 µM (inactive) | 23.6 µM (inactive) | 15.7 µM (inactive) | 22.9 µM (inactive) | 25.6 µM (inactive) | 20.4 µM (inactive) | 18.1 µM (inactive) | 
N#Cc1nc(-c2ccccc2O)oc1N | 70.1 µM (inactive) | 80.9 µM (inactive) | > 100 µM (inactive) | 36.9 µM (inactive) | > 100 µM (inactive) | 48.5 µM (inactive) | 43.5 µM | > 100 µM (inactive) | > 100 µM (inactive) | 40 µM (inactive) | 42 µM (inactive) |  |  |  |  | 64.3 µM (inactive) |  | > 100 µM (inactive) |  | 
COc1ccccc1/C=C1\S/C(=N/Nc2nc(C)c(C(C)=O)s2)NC1=O | 29.4 µM (inactive) | 22.8 µM (inactive) | 49.1 µM (inactive) | 57.3 µM (inactive) | 69.7 µM (inactive) |  |  | 81.1 µM (inactive) | 19.6 µM (inactive) |  | 38 µM (inactive) | 5.3 µM (inactive) | 42.1 µM (inactive) | 55.7 µM (inactive) |  | 22.8 µM (inactive) | 44.1 µM (inactive) | 64.1 µM (inactive) | 37.2 µM (inactive) | 
c1ccc2c(NCCCCCCCCNc3cccc4ccccc34)cccc2c1 | 23.4 µM (inactive) | 44.1 µM (inactive) | 30 µM (inactive) | 19.7 µM (inactive) |  | > 10 µM (inactive) | 25.8 µM | > 100 µM (inactive) | 18.2 µM (inactive) | 49.8 µM (inactive) | > 100 µM (inactive) | 85.1 µM (inactive) | 25.3 µM (inactive) | 21.7 µM (inactive) | 16.4 µM (inactive) | 65 µM (inactive) | 27 µM (inactive) | 35.8 µM (inactive) | 26.2 µM (inactive) | 
CC(=O)N1CN2C(=O)CCC2c2ccccc21 (stereo unspecified) | > 100 µM (inactive) | > 100 µM (inactive) | > 100 µM (inactive) | > 100 µM (inactive) | > 100 µM (inactive) | > 100 µM (inactive) | > 100 µM | > 100 µM (inactive) | > 100 µM (inactive) | > 100 µM (inactive) | > 100 µM (inactive) | > 100 µM (inactive) | > 100 µM (inactive) | > 100 µM (inactive) | > 100 µM (inactive) | > 100 µM (inactive) | > 100 µM (inactive) | > 100 µM (inactive) | > 100 µM (inactive) | 
CC(=O)Oc1ccccc1C(=O)C1c2cccc(O)c2C(=O)c2c(O)cccc21 | 1.67 µM (inactive) | 1.8 µM (inactive) | 0.771 µM (active) | 1.95 µM (inactive) |  | 2.18 µM (inactive) | 1.08 µM | 1.44 µM (inactive) | 1.18 µM (inactive) | 0.986 µM (active) | 0.421 µM (active) | 1.63 µM (inactive) | 1.09 µM (active) | 0.433 µM (active) | 0.479 µM (active) | 0.927 µM (active) | 0.46 µM (active) | 1.19 µM (inactive) | 0.741 µM (active) | 
c1csc(-c2ccc(-c3ccsc3)s2)c1 | > 100 µM (inactive) | > 100 µM (inactive) | > 100 µM (inactive) | > 100 µM (inactive) |  | > 87.3 µM (inactive) | > 100 µM | > 100 µM (inactive) | > 100 µM (inactive) | > 100 µM (inactive) | > 100 µM (inactive) | > 75.5 µM (inactive) | > 100 µM (inactive) | > 100 µM (inactive) | > 100 µM (inactive) | > 100 µM (inactive) | 68.5 µM (inactive) | > 100 µM (inactive) | > 100 µM (inactive) | > 100 µM (inactive)
C[n+]1cccc2ccc(OC(=O)c3ccccc3)cc21 | > 100 µM (inactive) | > 100 µM (inactive) | > 100 µM (inactive) | > 100 µM (inactive) | > 100 µM (inactive) | > 100 µM (inactive) | > 100 µM | > 100 µM (inactive) | > 100 µM (inactive) | > 100 µM (inactive) | > 100 µM (inactive) | > 100 µM (inactive) | > 100 µM (inactive) |  | > 100 µM (inactive) | > 100 µM (inactive) | > 100 µM (inactive) | > 100 µM (inactive) | > 100 µM (inactive) | 
NC(=O)C(=O)n1ncc(Cl)c(Cl)c1=O | 22.2 µM (inactive) | > 72.9 µM (inactive) | 24.4 µM (inactive) | 22.8 µM (inactive) | > 100 µM (inactive) | 39.2 µM (inactive) | > 46.9 µM | > 100 µM (inactive) | > 42.3 µM (inactive) | > 56.6 µM (inactive) | 34.1 µM (inactive) | > 69.5 µM (inactive) | 32.7 µM (inactive) | 74.8 µM (inactive) | 7.73 µM (inactive) | 46 µM (inactive) | 40.2 µM (inactive) | 23.8 µM (inactive) | 32.7 µM (inactive) | 
CC1(C)OC[C@@H]([C@H](C=O)OCc2ccccc2)O1 | > 100 µM (inactive) | > 100 µM (inactive) | > 100 µM (inactive) |  | > 100 µM (inactive) | > 100 µM (inactive) | > 100 µM | > 100 µM (inactive) | > 100 µM (inactive) | > 100 µM (inactive) | > 100 µM (inactive) | > 100 µM (inactive) | > 100 µM (inactive) |  |  | > 100 µM (inactive) |  | > 100 µM (inactive) | > 100 µM (inactive) | 
CCN(CC)Cc1cc(Nc2c3ccccc3nc3c2[nH]c2ccccc23)ccc1O | 1.13 µM (inactive) | 1.61 µM (inactive) | 0.875 µM (active) | 1.46 µM (inactive) |  | 2.45 µM (inactive) | 0.853 µM | 1.14 µM (inactive) | 1.5 µM (inactive) | 1.16 µM (inactive) | 1.36 µM (inactive) | 1.85 µM (inactive) | 1.43 µM (inactive) | 0.75 µM (active) | 1.13 µM (inactive) | 1.42 µM (inactive) | 1.35 µM (inactive) | 1.34 µM (inactive) | 1.52 µM (inactive) | 
COC(=O)C1=C(C)C(=O)[C@H]2C(C(=O)OC)CCCC[C@@H]12 (stereo partly specified) | > 100 µM (inactive) | > 100 µM (inactive) | > 100 µM (inactive) | > 100 µM (inactive) |  | > 100 µM (inactive) | > 100 µM | > 100 µM (inactive) | 32.3 µM (inactive) | > 100 µM (inactive) | > 100 µM (inactive) | > 100 µM (inactive) | > 100 µM (inactive) | > 100 µM (inactive) | 29.4 µM (inactive) | > 100 µM (inactive) | > 100 µM (inactive) | > 100 µM (inactive) | > 100 µM (inactive) | 
